Each structure is given as a SMILES string.

A word on the IC50: it is the concentration needed to halve the response being measured.

The first experiment has as its target T1, P2X7 receptor (Homo sapiens, UniProt Q99572).
T1 construct: host or cells: SH-SY5Y
T1 sequence (Q99572 1-595): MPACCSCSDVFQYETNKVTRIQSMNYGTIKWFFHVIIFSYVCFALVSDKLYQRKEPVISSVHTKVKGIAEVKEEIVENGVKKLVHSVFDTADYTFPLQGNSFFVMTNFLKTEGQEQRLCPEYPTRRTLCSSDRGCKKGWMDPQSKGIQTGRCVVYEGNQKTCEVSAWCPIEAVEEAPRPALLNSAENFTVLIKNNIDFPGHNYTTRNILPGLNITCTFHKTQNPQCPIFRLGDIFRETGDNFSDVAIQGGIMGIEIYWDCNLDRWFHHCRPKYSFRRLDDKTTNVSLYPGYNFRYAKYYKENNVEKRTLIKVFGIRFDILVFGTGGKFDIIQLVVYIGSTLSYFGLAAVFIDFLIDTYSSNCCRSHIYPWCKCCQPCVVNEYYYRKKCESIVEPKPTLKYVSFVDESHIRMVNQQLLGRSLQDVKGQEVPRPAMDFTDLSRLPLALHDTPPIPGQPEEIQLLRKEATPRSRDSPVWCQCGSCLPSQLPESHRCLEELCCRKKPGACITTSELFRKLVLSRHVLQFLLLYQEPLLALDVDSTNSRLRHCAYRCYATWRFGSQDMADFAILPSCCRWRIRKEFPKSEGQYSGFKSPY
In words: P2X7 calcium mobilization assay, high throughput, antagonist activity (Example 4A). Type of experiment: cell-based.
Details: not given
The method, boiled down: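 Cells plated at 100,000/well the day before were dye-loaded for 1 h, then incubated 1 h at room temperature with test compound before agonist-triggered calcium mobilization was read on FLIPR Tetra. Maximum RFU was corrected by subtracting the no-agonist control and related to the agonist-control response.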
On the technique in general: Calcium assays in cells follow changes in intracellular calcium, usually with a dye or a luminescent sensor.
`CC(C)(C)OC(=O)N[C@@H]1CCN(Cc2cn3c(C(=O)NCC45CC6CC(CC(C6)C4)C5)cccc3n2)C1` [Compound 62, tert-butyl [(3R)-1-({5-[(adamantan-1-ylmethyl)carbamoyl]imi-dazo[1,2-a]pyridin-2-yl}methyl)pyrrolidin-3-yl]carbamate]: the 50% inhibitory concentration (IC50) is under 2000 nM. Same read-out and setting: in the case of `O=C(NCC12CC3CC(CC(C3)C1)C2)c1cccc2nc(CN3CCCC(C(=O)O)C3)cn12` (stereo not drawn) [Compound 191, 1-({5-[(adamantan-1-ylmethyl)carbamoyl]imi-dazo[1,2-a]pyridin-2-yl}methyl)piperidine-3-carboxylic acid] it was under 2000 nM.

Still in this experiment, the particulars now being: 50% decrease in the fluorescence response of cells exposed to 80 μM 2′(3′)-O-(4-benzoyl-benzoyl)adenosine 5′-triphosphate; Example 4A; read-out: IC50.
For the compound `O=C(NCC12CC3CC(CC(C3)C1)C2)c1cccc2nc(C(=O)N3CCOCC3)cn12` [Compound 529, N-(adamantan-1-ylmethyl)-2-(morpholin-4-ylcarbonyl)imidazo[1,2-a]pyridine-5-carboxamide], the IC50 was under 2000 nM. Same read-out and setting: to `CC(C)[C@@H]1CNCCN1C(=O)Cc1cn2c(C(=O)NC[C@@H]3CC[C@@H]4C[C@H]3C4(C)C)cccc2n1` [Compound 570, N-{[(1R,2R,5R)-6,6-dimethylbicyclo[3.1.1]hept-2-yl]methyl}-2-{2-[(2R)-2-isopropylpiperazin-1-yl]-2-oxoethyl}imidazo[1,2-a]pyridine-5-carboxamide] belongs under 2000 nM. Turning to `CNC1CCN(C(=O)c2cn3c(C(=O)NCC45CC6CC(CC(C6)C4)C5)cccc3n2)C1` (stereo not drawn) [Compound 611, N-(adamantan-1-ylmethyl)-2-{[3-(methylamino)pyrrolidin-1-yl]carbonyl}imidazo[1,2-a]pyridine-5-carboxamide], the IC50 was under 2000 nM.

The same experiment, now with this note: 50% decrease in the fluorescence response of cells exposed to 80 μM of 2′(3′)-O-(4-benzoyl-benzoyl)adenosine 5′-triphosphate; Example 4A; read-out: IC50.
For the compound `NCC1CN(C(=O)c2cn3c(C(=O)NCC45CC6CC(CC(C6)C4)C5)cccc3n2)C1` [Compound 634, N-(adamantan-1-ylmethyl)-2-{[3-(aminomethyl)azetidin-1-yl]carbonyl}imidazo[1,2-a]pyridine-5-carboxamide], the IC50 is under 2000 nM. Regarding `CC(C)N[C@@H]1CCCN(C(=O)c2cn3c(C(=O)NCC45CC6CC(CC(C6)C4)C5)cccc3n2)C1` [Compound 745, N-(adamantan-1-ylmethyl)-2-{[(3R)-3-(isopropylamino)piperidin-1-yl]carbonyl}imidazo[1,2-a]pyridine-5-carboxamide], the IC50 was under 2000 nM.

Turning to `CC(C)CC(CNC(=O)c1cccc2nc(CN3CCOCC3)cn12)C1CCCCC1` (stereo not drawn) [Compound 687, N-(2-cyclohexyl-4-methylpentyl)-2-(morpholin-4-ylmethyl)imidazo[1,2-a]pyridine-5-carboxamide], the IC50 is under 2000 nM.

Regarding `O=C(NCCCN1CCCC1)c1cn2c(C(=O)NCC34CC5CC(CC(C5)C3)C4)cccc2n1` [Compound 645, 5-N-(adamantan-1-ylmethyl)-2-N-(3-pyrrolidin-1-ylpropyl)imidazo[1,2-a]pyridine-2,5-dicarboxamide], the IC50 is under 2000 nM.

Still in this experiment, the particulars now being: 50% decrease in the fluorescence response of cells exposed to 80 μM of 2′(3′)-O-(4-benzoyl-benzoyl)adenosine 5′-triphosphate; determined as in Example 4A; read-out: IC50.
In the case of `O=C(Cc1cn2c(C(=O)NCC34CC5CC(CC(C5)C3)C4)cccc2n1)N[C@@H]1CCNC1` [Compound 837, N-(adamantan-1-ylmethyl)-2-{2-oxo-2-[(3R)-pyrrolidin-3-ylamino]ethyl} imidazo [1,2-a]pyridine-5-carboxamide], the IC50 is under 2000 nM. For the compound `CC(C)CC(CNC(=O)c1cccc2nc(C(=O)N3CCC[C@@H](N)C3)cn12)c1ccc(Cl)cc1` (stereo partly drawn) [Compound 832, 2-{[(3R)-3-aminopiperidin-1-yl]carbonyl}-N-[2-(4-chlorophenyl)-4-methylpentyl] imidazo[1,2-a] pyridine-5-carboxamide], the IC50 is under 2000 nM. Consider `O=C(NCC1(c2ccc(Cl)cc2)CCCCC1)c1cccc2nc(CC(=O)N3CCn4cncc4C3)cn12` [Compound 881, N-{[1-(4-chlorophenyl)cyclohexyl]methyl}-2-[2-(5,6-dihydroimidazo[1,5-a]pyrazin-7(8H)-yl)-2-oxoethyl]imidazo[1,2-a]pyridine-5-carboxamide], for which the IC50 was under 2000 nM. For the compound `CCOC(=O)Cc1cn2c(C(=O)NCC3(c4ccc(Cl)cc4)CCCCC3)cccc2n1` [Compound 914, ethyl [5-({[1-(4-chlorophenyl)cyclohexyl]methyl}carbamoyl)imidazo[1,2-a]pyridin-2-yl] acetate], the IC50 was under 2000 nM. For the compound `O=C(NCC1(c2cccnc2)CCCCC1)c1cccc2nc(CC(=O)N3CCSCC3)cn12` [Compound 890, 2-(2-oxo-2-thiomorpholin-4-ylethyl)-N-[(1-pyridin-3-ylcyclohexyl)methyl] imidazo[1,2-a] pyridine-5-carboxamide], the IC50 is under 2000 nM.

Staying with this experiment, now noted: P2X7 calcium mobilization, Example 4A; 50% decrease in the fluorescence response of cells exposed to 80 μM of (2′(3′)-O-(4-benzoyl-benzoyl)adenosine 5′-triphosephate); read-out: IC50.
For the compound `O=C(NCC(c1ccc(Cl)cc1)N1CCOCC1)c1cccc2ncc(Cl)n12` (stereo not drawn) [Compound 1055, 3-chloro-N-[2-(4-chlorophenyl)-2-morpholin-4-ylethyl]imidazo[1,2-a]pyridine-5-carboxamide], the IC50 is under 2000 nM.

As to `CC(C)CC(CNC(=O)c1cccc2nc(CCN3CCCC3)cn12)c1ccc(C(F)(F)F)cc1` (stereo not drawn) [Compound 1042, N-{4-methyl-2-[4-(Irifluoromethyl)phenyl]pentyl}-2-(2-pyrrolidin-1-ylethyl) imidazo[1,2-a]pyridine-5-carboxamide], the half-maximal inhibitory concentration (IC50) was under 2000 nM. As to `O=C(NCC1(c2ccc(F)cc2)CCCCC1)c1cccc2nc(CN3CCCC3)cn12` [Compound 1045, N-{[1-(4-fluorophenyl)cyclohexyl]methyl}-2-(pyrrolidin-1-ylmethyl) imidazo[1,2-a]pyridine-5-carboxamide], the IC50 is under 2000 nM.

The same experiment, now with this note: SH-SY5Y cells; 50% decrease in fluorescence response to 80 μM BzATP; read-out: IC50.
In the case of `CCC(C)NC(=O)Cc1cn2c(C(=O)NCC34CC5CC(CC(C5)C3)C4)cccc2n1` (stereo not drawn) [Compound 152, N-(adamantan-1-ylmethyl)-2-[2-(sec-butylamino)-2-oxoethyl]imidazo[1,2-a]pyridine-5-carboxamide], the IC50 was under 2000 nM. On the same count and under the same terms, in the case of `CCNC(=O)Cc1cn2c(C(=O)NCC34CC5CC(CC(C5)C3)C4)cccc2n1` [Compound 17, N-(adamantan-1-ylmethyl)-2-[2-(ethylamino)-2-oxoethyl]imidazo[1,2-a]pyridine-5-carboxamide] it was under 2000 nM; in that of `COCCC1CCCN(C(=O)Cc2cn3c(C(=O)NCC45CC6CC(CC(C6)C4)C5)cccc3n2)C1` (stereo not drawn) [Compound 178, N-(adamantan-1-ylmethyl)-2-{2-[3-(2-methoxyethyl)piperidin-1-yl]-2-oxoethyl}imidazo[1,2-a]pyridine-5-carboxamide], under 2000 nM; in that of `O=C(NCC12CC3CC(CC(C3)C1)C2)c1cccc2nc(C(=O)N3CCC(O)CC3)cn12` [Compound 106, N-(adamantan-1-ylmethyl)-2-[(4-hydroxypiperidin-1-yl)carbonyl]imidazo[1,2-a]pyridine-5-carboxamide], under 2000 nM.

Take `N[C@@H]1CCN(C(=O)c2cn3c(C(=O)NCC45CC6CC(CC(C6)C4)C5)cccc3n2)C1` [Compound 129, N-(adamantan-1-ylmethyl)-2-{[(3R)-3-aminopyrrolidin-1-yl]carbonyl}imidazo[1,2-a]pyridine-5-carboxamide]: the 50% inhibitory concentration (IC50) is under 2000 nM.

The same experiment, now with this note: fluorescence response of cells exposed to 80 μM 2′(3′)-O-(4-benzoyl-benzoyl)adenosine 5′-triphosphate; Example 4A; read-out: IC50.
Turning to `CC1(C)[C@H]2CC[C@@H](CNC(=O)c3cccc4nc(C(=O)N5CCC(N)CC5)cn34)[C@@H]1C2` [Compound 326, 2-[(4-aminopiperidin-1-yl)carbonyl]-N-{[(1S,2R,5S)-6.6-dimethylbicyclo[3.1.1]hept-2-yl]methyl}imidazo[1,2-a]pyridine-5-carboxamide], the 50% inhibitory concentration (IC50) was under 2000 nM. Take `CN(C)C(=O)c1cn2c(NC(=O)CC34CC5CC(CC(C5)C3)C4)cccc2n1` [Compound 370, 5-[(adamantan-1-ylacetyl)amino]-N,N-dimethylimidazo[1,2-a]pyridine-2-carboxamide]: the IC50 is under 2000 nM. Still for that read-out and setting: to `CS(=O)(=O)N1CCN(C(=O)c2cn3c(NC(=O)CC45CC6CC(CC(C6)C4)C5)cccc3n2)CC1` [Compound 399, 2-adamantan-1-yl-N-(2-{[4-(methylsulfonyl)piperazin-1-yl]carbonyl}imidazo [1,2-a]pyridin-5-yl)acetamide] belongs under 2000 nM.

As for `C=Cc1cn2c(C(=O)NCC34CC5CC(CC(C5)C3)C4)cccc2n1` [Compound 278, N-(adamantan-1-ylmethyl)-2-vinylimidazo[1,2-a]pyridine-5-carboxamide], the 50% inhibitory concentration (IC50) is under 2000 nM. Still for that read-out and setting: to `O=C(CC12CC3CC(CC(C3)C1)C2)Nc1cccc2nc(C(=O)N3CCCC3)cn12` [Compound 358, 2-adamantan-1-yl-N-[2-(pyrrolidin-1-ylcarbonyl)imidazo [1,2-a]pyridin-5-yl]acetamide] belongs under 2000 nM.

(Values after patent publication US8431593B2, “Heteroaryl amide derivatives” (H. Lundbeck A/S, priority 2006, dated 2013).)
